Measurements taken from US9133219B2, “Bicyclic antibiotics” (Basilea Pharmaceutica AG, priority 2009, dated 2015).
In brackets after ≈: the same amount, converted by molar mass.

How the values were obtained:
Assay type in all cases: cell-based
Streptococcus pneumoniae = test: Anti-microbial activity assay, MIC by broth microdilution (CAMHB with 5% horse serum); settings: Streptococcus pneumoniae; strain ATCC49619; CAMHB with 5% horse serum; read-out: MIC Streptococcus pneumoniae ATCC49619
Method: (§1) Anti-Microbial Activity Assay.
(§2) The antibacterial activity of compounds is determined by the minimal inhibitory concentration (MIC) method. MICs for all bacteria except pneumococci and Haemophilus influenzae are obtained by broth microdilution with cation-adjusted Mueller-Hinton broth (CAMHB; BBL), according to CLSI guidelines (National Committee for Clinical Laboratory Standards. 2003. Methods for dilution antimicrobial susceptibility tests for bacteria that grow aerobically, 5th ed.; approved standard M7-A6. National Committee for Clinical Laboratory Standards, Wayne, Pa.), with the following modifications: (i) for pneumococci CAMHB is supplemented with 5% (^v/v) horse serum; (ii) for Haemophilus influenzae CAMHB is supplemented with 5% (^v/v) Fildes enrichment (BBL) (Pankuch, G. A., Hoellman, D. B., Lin, G., Bajaksouzian, S., Jacobs, M. R., and Appelbaum, P. C. 1998. Activity of HMR 3647 compared to those of five agents against Haemophilus influenzae and Moraxella catarrhalis by MIC determination and time-kill assay. Antimicrob. Agents Chemother. 42:3032-3034). Microtiter plates are incubated at 35° C. in ambient air for 20 to 24 h, then inspected using an illuminated microtiter plate reader fitted with a magnifying mirror (MIC 2000; Cooke Laboratory Products, Alexandria, Va.). Compounds of the present invention are tested against several bacteria strains comprising some Acinetobacter baumannii, Enterococcus faecalis, Enterococcus faecitan, Escherichia coli, Haemophilus influenzae, Klebsiella pneumoniae, Pseudomonas aeruginosa, Staphylococcus aureus, Staphylococcus epidermidis and Streptococcus pneumoniae.

[1] = system: Staphylococcus aureus and/or Staphylococcus epidermidis and/or Streptococcus pneumoniae and/or Escherichia coli; test: MIC summary statement, staphylococci, pneumococci and E. coli; settings: generally, for S. aureus and/or S. epidermidis and/or S. pneumoniae and/or E. coli; in most case of less than 2 mg/L
Method: as §1, §2

Staphylococcus aureus = test: Anti-microbial activity assay, MIC by broth microdilution; settings: Staphylococcus aureus; strain ATCC29213; read-out: MIC Staphylococcus aureus ATCC29213
Method: as §1, §2

Escherichia coli = test: as above; settings: Escherichia coli; strain UB1005; read-out: MIC Escherichia coli UB1005
Method: as §1, §2

[2] = system: Staphylococcus epidermidis; test: as above; settings: Staphylococcus epidermidis; strain ATCC14990
Method: as §1, §2

[3] = system: Staphylococcus aureus and/or Staphylococcus epidermidis and/or Streptococcus pneumoniae; test: MIC summary statement, staphylococci and pneumococci; settings: generally, for Staphylococcus aureus and/or Staphylococcus epidermidis and/or Streptococcus pneumoniae
Method: as §1, §2

[4] = system: Staphylococcus aureus and/or Staphylococcus epidermidis; test: MIC summary statement, staphylococci; settings: generally, for Staphylococcus aureus and/or Staphylococcus epidermidis
Method: as §1, §2

## COc1ccc2ncc(SCCN3CCC(NC(=O)c4ccc5c(c4)NC(=O)CO5)CC3)nc2c1 [Example 36, 3-oxo-3,4-dihydro-2H-benzo[1,4]oxazine-6-carboxylic acid {1-[2-(7-methoxy-quinoxalin-2-ylsulfanyl)-ethyl]-piperidin-4-yl}-amide]
Streptococcus pneumoniae
  MIC: ≤ 2 µg/mL
[1]
  MIC: ≤ 4 µg/mL
Staphylococcus aureus
  MIC: ≤ 2 µg/mL
Escherichia coli
  MIC: 4 µg/mL (≈ 8.1 µM)
[2]
  MIC: ≤ 2 µg/mL
[3]
  MIC: ≤ 2 µg/mL
[4]
  MIC: ≤ 2 µg/mL

## COc1ccc2ncc(SCCN3CCC(NC(=O)c4cc5c(cc4Cl)SCC(=O)N5)CC3)cc2c1 [Example 54, 7-chloro-3-oxo-3,4-dihydro-2H-benzo[1,4]thiazine-6-carboxylic acid {1-[2-(6-methoxy-quinolin-3-ylsulfanyl)-ethyl]-piperidin-4-yl}-amide]
Streptococcus pneumoniae
  MIC: 4 µg/mL (≈ 7.36 µM)
[1]
  MIC: ≤ 4 µg/mL
Staphylococcus aureus
  MIC: ≤ 2 µg/mL
Escherichia coli
  MIC: 4 µg/mL (≈ 7.36 µM)
[2]
  MIC: ≤ 2 µg/mL
[4]
  MIC: ≤ 2 µg/mL

## COc1ccc2ncc(SCCN3CCC(NCc4ccc5c(c4)NC(=O)CS5)CC3)nc2c1 [Example 46, 6-({1-[2-(7-methoxy-quinoxalin-2-ylsulfanyl)-ethyl]-piperidin-4-ylamino}-methyl)-4H-benzo[1,4]thiazin-3-one]
Streptococcus pneumoniae
  MIC: ≤ 2 µg/mL
[1]
  MIC: ≤ 4 µg/mL
Staphylococcus aureus
  MIC: ≤ 2 µg/mL
Escherichia coli
  MIC: ≤ 2 µg/mL
[2]
  MIC: ≤ 2 µg/mL
[3]
  MIC: ≤ 2 µg/mL
[4]
  MIC: ≤ 2 µg/mL

## COc1ccc2ncc(SCCN3CCC(NC(=O)c4cc5c(cc4Cl)SCC(=O)N5)CC3)nc2c1 [Example 37, 7-chloro-3-oxo-3,4-dihydro-2H-benzo[1,4]thiazine-6-carboxylic acid {1-[2-(7-methoxy-quinoxalin-2-ylsulfanyl)-ethyl]-piperidin-4-yl}-amide]
Streptococcus pneumoniae
  MIC: ≤ 2 µg/mL
[1]
  MIC: ≤ 4 µg/mL
Staphylococcus aureus
  MIC: ≤ 2 µg/mL
Escherichia coli
  MIC: ≤ 2 µg/mL
[2]
  MIC: ≤ 2 µg/mL
[3]
  MIC: ≤ 2 µg/mL
[4]
  MIC: ≤ 2 µg/mL

## COc1ccc2ncc(SCCN3CCC(NCc4cc5c(cc4Cl)SCC(=O)N5)CC3)nc2c1 [Example 48, 7-chloro-6-({1-[2-(7-methoxy-quinoxalin-2-ylsulfanyl)-ethyl]-piperidin-4-ylamino}-methyl)-4H-benzo[1,4]thiazin-3-one]
Streptococcus pneumoniae
  MIC: ≤ 2 µg/mL
[1]
  MIC: ≤ 4 µg/mL
Staphylococcus aureus
  MIC: ≤ 2 µg/mL
Escherichia coli
  MIC: ≤ 2 µg/mL
[2]
  MIC: ≤ 2 µg/mL
[3]
  MIC: ≤ 2 µg/mL
[4]
  MIC: ≤ 2 µg/mL

## COc1ccc2ncc(SCCN3CCC(NCc4ccc5c(n4)NC(=O)CO5)CC3)nc2c1 [Example 45, 6-({1-[2-(7-methoxy-quinoxalin-2-ylsulfanyl)-ethyl]-piperidin-4-ylamino}-methyl)-4H-pyrido[3,2-b][1,4]oxazin-3-one]
Streptococcus pneumoniae
  MIC: ≤ 2 µg/mL
[1]
  MIC: ≤ 4 µg/mL
Staphylococcus aureus
  MIC: ≤ 2 µg/mL
Escherichia coli
  MIC: ≤ 2 µg/mL
[2]
  MIC: ≤ 2 µg/mL
[3]
  MIC: ≤ 2 µg/mL
[4]
  MIC: ≤ 2 µg/mL

## COc1ccc2ncc(SCCN3CCC(NCc4cc5c(cc4Cl)SCCN5)CC3)nc2c1 [Example 49, (7-chloro-3,4-dihydro-2H-benzo[1,4]thiazin-6-ylmethyl)-{1-[2-(7-methoxy-quinoxalin-2-ylsulfanyl)-ethyl]-piperidin-4-yl}-amine]
Streptococcus pneumoniae
  MIC: ≤ 2 µg/mL
[1]
  MIC: ≤ 4 µg/mL
Staphylococcus aureus
  MIC: ≤ 2 µg/mL
Escherichia coli
  MIC: 4 µg/mL (≈ 7.75 µM)
[2]
  MIC: ≤ 2 µg/mL
[3]
  MIC: ≤ 2 µg/mL
[4]
  MIC: ≤ 2 µg/mL

## COc1ccc2ncc(SCCN3CCC(NC(=O)c4cc(-c5cccs5)on4)CC3)nc2c1 [Example 35, 5-thiophen-2-yl-isoxazole-3-carboxylic acid {1-[2-(7-methoxy-quinoxalin-2-ylsulfanyl)-ethyl]-piperidin-4-yl}-amide]
Streptococcus pneumoniae
  MIC: ≤ 2 µg/mL
Staphylococcus aureus
  MIC: ≤ 2 µg/mL
Escherichia coli
  MIC: > 32 µg/mL
[2]
  MIC: ≤ 2 µg/mL
[3]
  MIC: ≤ 2 µg/mL
[4]
  MIC: ≤ 2 µg/mL

## COc1ccc2ncc(SCCN3CCC(NCc4ccc5c(c4)OCCO5)CC3)nc2c1 [Example 41, (2,3-dihydro-benzo[1,4]dioxin-6-ylmethyl)-{1-[2-(7-methoxy-quinoxalin-2-ylsulfanyl)-ethyl]-piperidin-4-yl}-amine]
Streptococcus pneumoniae
  MIC: ≤ 2 µg/mL
Staphylococcus aureus
  MIC: ≤ 2 µg/mL
Escherichia coli
  MIC: 8 µg/mL (≈ 17.1 µM)
[2]
  MIC: ≤ 2 µg/mL
[3]
  MIC: ≤ 2 µg/mL
[4]
  MIC: ≤ 2 µg/mL

## COc1ccc2ncc(SCCN3CCC(NC(=O)c4cc5c(cc4Cl)SCCN5)CC3)nc2c1 [Example 44, 7-chloro-3,4-dihydro-2H-benzo[1,4]thiazine-6-carboxylic acid {1-[2-(7-methoxy-quinoxalin-2-ylsulfanyl)-ethyl]-piperidin-4-yl}-amide]
Streptococcus pneumoniae
  MIC: 4 µg/mL (≈ 7.55 µM)
[1]
  MIC: ≤ 4 µg/mL
Staphylococcus aureus
  MIC: ≤ 2 µg/mL
Escherichia coli
  MIC: 4 µg/mL (≈ 7.55 µM)
[2]
  MIC: ≤ 2 µg/mL
[4]
  MIC: ≤ 2 µg/mL

## COc1ccc2ncc(SCCN3CCC(NC(=O)c4nc5c(cc4Cl)SCC(=O)N5)CC3)nc2c1 [Example 51, 7-chloro-3-oxo-3,4-dihydro-2H-pyrido[3,2-b][1,4]thiazine-6-carboxylic acid {1-[2-(7-methoxy-quinoxalin-2-ylsulfanyl)-ethyl]-piperidin-4-yl}-amide]
Streptococcus pneumoniae
  MIC: 4 µg/mL (≈ 7.34 µM)
[1]
  MIC: ≤ 4 µg/mL
Staphylococcus aureus
  MIC: ≤ 2 µg/mL
Escherichia coli
  MIC: 4 µg/mL (≈ 7.34 µM)
[2]
  MIC: ≤ 2 µg/mL
[4]
  MIC: ≤ 2 µg/mL

## COc1ccc2ncc(SCCN3CCC(NCCSc4cccs4)CC3)nc2c1 [Example 38, {1-[2-(7-methoxy-quinoxalin-2-ylsulfanyl)-ethyl]-piperidin-4-yl}-[2-(thiophen-2-ylsulfanyl)-ethyl]-amine]
Streptococcus pneumoniae
  MIC: ≤ 2 µg/mL
Staphylococcus aureus
  MIC: ≤ 2 µg/mL
Escherichia coli
  MIC: 16 µg/mL (≈ 34.7 µM)
[2]
  MIC: ≤ 2 µg/mL
[3]
  MIC: ≤ 2 µg/mL
[4]
  MIC: ≤ 2 µg/mL

## COc1ccc2ncc(OCCCN3CCC(CNCc4ccc5c(n4)NC(=O)CO5)CC3)nc2c1 [Example 9, 6-[({1-[3-(7-methoxy-quinoxalin-2-yloxy)-propyl]-piperidin-4-ylmethyl}-amino)-methyl]-4H-pyrido[3,2-b][1,4]oxazin-3-one]
Streptococcus pneumoniae
  MIC: ≤ 2 µg/mL
[1]
  MIC: ≤ 4 µg/mL
Staphylococcus aureus
  MIC: ≤ 2 µg/mL
Escherichia coli
  MIC: 4 µg/mL (≈ 8.12 µM)
[2]
  MIC: 4 µg/mL (≈ 8.12 µM)
[3]
  MIC: ≤ 2 µg/mL
[4]
  MIC: ≤ 2 µg/mL

## COc1ccc2ncc(SCCN3CCC(N(C)C(=O)c4ccc5c(c4)NC(=O)CS5)CC3)nc2c1 [Example 52, 3-oxo-3,4-dihydro-2H-benzo[1,4]thiazine-6-carboxylic acid {1-[2-(7-methoxy-quinoxalin-2-ylsulfanyl)-ethyl]-piperidin-4-yl}-methyl-amide]
Streptococcus pneumoniae
  MIC: ≤ 2 µg/mL
Staphylococcus aureus
  MIC: ≤ 2 µg/mL
Escherichia coli
  MIC: 16 µg/mL (≈ 30.6 µM)
[2]
  MIC: ≤ 2 µg/mL
[3]
  MIC: ≤ 2 µg/mL
[4]
  MIC: ≤ 2 µg/mL

## COc1ccc2ncc(SCCN3CCC(NC(=O)c4ccc5c(n4)NC(=O)CS5)CC3)cc2c1 [Example 55, 3-oxo-3,4-dihydro-2H-pyrido[3,2-b][1,4]thiazine-6-carboxylic acid {1-[2-(6-methoxy-quinolin-3-ylsulfanyl)-ethyl]-piperidin-4-yl}-amide]
Streptococcus pneumoniae
  MIC: ≤ 2 µg/mL
Staphylococcus aureus
  MIC: ≤ 2 µg/mL
Escherichia coli
  MIC: 16 µg/mL (≈ 31.4 µM)
[2]
  MIC: ≤ 2 µg/mL
[3]
  MIC: ≤ 2 µg/mL
[4]
  MIC: ≤ 2 µg/mL

## COc1ccc2ncc(SCCN3CCC(NC(=O)c4ccc5c(c4)NC(=O)CS5)CC3)cc2c1 [Example 53, 3-oxo-3,4-dihydro-2H-benzo[1,4]thiazine-6-carboxylic acid {1-[2-(6-methoxy-quinolin-3-ylsulfanyl)-ethyl]-piperidin-4-yl}-amide]
Streptococcus pneumoniae
  MIC: ≤ 2 µg/mL
[1]
  MIC: ≤ 4 µg/mL
Staphylococcus aureus
  MIC: ≤ 2 µg/mL
Escherichia coli
  MIC: 4 µg/mL (≈ 7.86 µM)
[2]
  MIC: ≤ 2 µg/mL
[3]
  MIC: ≤ 2 µg/mL
[4]
  MIC: ≤ 2 µg/mL

## COc1ccc2ncc(SCCN3CCC(NC(=O)c4ccc5c(n4)NC(=O)CS5)CC3)nc2c1 [Example 50, 3-oxo-3,4-dihydro-2H-pyrido[3,2-b][1,4]thiazine-6-carboxylic acid {1-[2-(7-methoxy-quinoxalin-2-ylsulfanyl)-ethyl]-piperidin-4-yl}-amide]
Streptococcus pneumoniae
  MIC: ≤ 2 µg/mL
[1]
  MIC: ≤ 4 µg/mL
Staphylococcus aureus
  MIC: ≤ 2 µg/mL
Escherichia coli
  MIC: 4 µg/mL (≈ 7.83 µM)
[2]
  MIC: ≤ 2 µg/mL
[3]
  MIC: ≤ 2 µg/mL
[4]
  MIC: ≤ 2 µg/mL
